Assay results: patent US7928093B2, “Amino-propanol derivatives” (Novartis AG, priority 2004, dated 2011)

How the values were obtained:
[1] = molecular target: T1, human S1P receptor EDG-1 (S1P1) (Homo sapiens, UniProt P21453); assay: S1P receptor profiling, GTP[γ-35S] binding SPA; assay type: biochemical; set-up: key to S1P1 mode of action: Agon = agonist; settings: for EC50: membranes of transfected CHO or RH7777 cells
T1 construct: expressed in transfected cells
Protocol: (§1) Sphingosine-1-phosphate (S1P) Receptor Profiling
(§2) Agonist activities of compounds are tested on the human S1P receptors EDG-1 (S1P1), EDG-3 (S1P3), EDG-5 (S1P2), EDG-6 (S1P4) and EDG-8 (S1P5). […] The assay technology used is SPA (scintillation proximity based assay). Briefly, DMSO dissolved compounds are serially diluted and added to SPA-bead (Amersham-Pharmacia) immobilised SIP receptor expressing membrane protein (10-20 μg/well) in the presence of 50 mM Hepes, 100 mM NaCl, 10 mM MgCl2, 10 μM GDP, 0.1% fat free BSA and 0.2 nM GTP [γ-^35S] (1200 Ci/mmol). After incubation in 96 well microtiterplates at RT for 120 min, unbound GTP [γ-^35S] is separated by a centrifugation step. Luminescence of SPA beads triggered by membrane bound GTP [γ-^35S] is quantified with a TOPcount plate reader (Packard). EC50s are calculated using standard curve fitting software. In this assay, the compounds of formula I have a binding affinity to S1P1 receptor <50 nM.

[2] = molecular target: T2, human S1P receptor EDG-3 (S1P3) (Homo sapiens, UniProt Q99500); assay: S1P receptor profiling, GTP[γ-35S] binding SPA; assay type: biochemical; set-up: key to S1P3 mode of action: Agon = agonist; settings: for EC50: membranes of transfected CHO or RH7777 cells
T2 construct: expressed in transfected cells
Protocol: as §1, §2

[3] = molecular target: T3, human S1P receptor EDG-6 (S1P4) (Homo sapiens, UniProt O95977); assay: S1P receptor profiling, GTP[γ-35S] binding SPA; assay type: biochemical; set-up: key to S1P4 mode of action: Agon = agonist; settings: for EC50: membranes of transfected CHO or RH7777 cells
T3 construct: expressed in transfected cells
T3 sequence (O95977 1-384): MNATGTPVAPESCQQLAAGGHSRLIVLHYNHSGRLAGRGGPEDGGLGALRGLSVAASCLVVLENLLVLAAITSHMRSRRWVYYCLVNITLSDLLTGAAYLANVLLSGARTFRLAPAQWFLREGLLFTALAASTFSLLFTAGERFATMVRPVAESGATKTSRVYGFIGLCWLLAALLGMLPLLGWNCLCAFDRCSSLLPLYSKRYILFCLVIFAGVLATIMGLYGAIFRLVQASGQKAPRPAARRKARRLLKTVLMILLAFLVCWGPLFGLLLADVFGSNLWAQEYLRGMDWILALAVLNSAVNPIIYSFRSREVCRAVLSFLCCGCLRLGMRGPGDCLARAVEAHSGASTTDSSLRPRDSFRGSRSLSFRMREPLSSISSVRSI
Protocol: as §1, §2

[4] = molecular target: T4, human S1P receptor EDG-8 (S1P5) (Homo sapiens, UniProt Q9H228); assay: S1P receptor profiling, GTP[γ-35S] binding SPA; assay type: biochemical; set-up: key to S1P5 mode of action: Agon = agonist; settings: for EC50: membranes of transfected CHO or RH7777 cells
T4 construct: expressed in transfected cells
Protocol: as §1, §2

[5] = system: peripheral blood lymphocytes; assay: Blood lymphocyte depletion in vivo; settings: rats, p.o., after 6 h
Protocol: B. In Vivo: Blood Lymphocyte Depletion
A compound of formula I or the vehicle is administered orally by gavage to rats. Tail blood for hematological monitoring is obtained on day −1 to give the baseline individual values, and at 2, 6, 24, 48 and 72 hours after application. In this assay, the compounds of formula I deplete peripheral blood lymphocytes when administered at a dose of 0.03 to 3 mg/kg. For example, following results are obtained: depletion of peripheral blood lymphocytes by more than 50%.

T1 sequence (P21453 whole entry): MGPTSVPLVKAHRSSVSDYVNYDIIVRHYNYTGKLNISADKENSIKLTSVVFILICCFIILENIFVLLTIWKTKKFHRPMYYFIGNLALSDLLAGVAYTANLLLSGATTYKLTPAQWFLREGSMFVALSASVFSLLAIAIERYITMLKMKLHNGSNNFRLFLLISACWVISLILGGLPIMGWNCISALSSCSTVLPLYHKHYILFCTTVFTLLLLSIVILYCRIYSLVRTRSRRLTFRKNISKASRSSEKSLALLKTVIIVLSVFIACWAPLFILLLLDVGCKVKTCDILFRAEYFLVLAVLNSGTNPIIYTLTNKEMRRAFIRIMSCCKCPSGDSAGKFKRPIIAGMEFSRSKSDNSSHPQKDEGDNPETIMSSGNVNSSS
T4 sequence (Q9H228 whole entry): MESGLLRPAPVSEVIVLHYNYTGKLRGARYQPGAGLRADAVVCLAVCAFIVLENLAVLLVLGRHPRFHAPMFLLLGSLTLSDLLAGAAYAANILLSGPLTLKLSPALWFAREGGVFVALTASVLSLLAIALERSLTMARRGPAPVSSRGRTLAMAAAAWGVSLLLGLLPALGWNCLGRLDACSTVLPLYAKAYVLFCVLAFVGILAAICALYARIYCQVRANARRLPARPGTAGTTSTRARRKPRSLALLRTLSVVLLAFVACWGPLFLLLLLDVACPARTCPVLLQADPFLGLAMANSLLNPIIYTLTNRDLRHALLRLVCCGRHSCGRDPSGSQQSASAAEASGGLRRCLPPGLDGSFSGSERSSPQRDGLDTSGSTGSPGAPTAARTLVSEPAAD
T2 sequence (Q99500 whole entry): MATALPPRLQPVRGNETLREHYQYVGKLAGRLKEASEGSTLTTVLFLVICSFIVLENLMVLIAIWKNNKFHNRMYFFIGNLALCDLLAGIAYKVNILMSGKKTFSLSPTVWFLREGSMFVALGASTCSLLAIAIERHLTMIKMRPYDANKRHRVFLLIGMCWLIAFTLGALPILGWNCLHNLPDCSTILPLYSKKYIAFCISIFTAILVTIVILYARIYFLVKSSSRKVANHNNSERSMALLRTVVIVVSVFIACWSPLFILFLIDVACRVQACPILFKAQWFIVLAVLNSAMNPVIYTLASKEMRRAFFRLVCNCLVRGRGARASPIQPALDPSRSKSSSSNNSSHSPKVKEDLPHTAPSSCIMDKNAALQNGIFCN

S1P1 mode of action [1] | EC50 [1] [nM] | S1P3 mode of action [2] | EC50 [2] [nM] | S1P4 mode of action [3] | EC50 [3] [nM] | S1P5 mode of action [4] | EC50 [4] [nM] | Structure (SMILES) | dose giving depletion of peripheral blood lymphocytes by more than 50% [5] [mg/kg]
Agon | 0.07 | Agon | 1.4 | Agon | 0.4 | Agon | 0.15 | CCCCCCCOc1ccc(CC[C@@](C)(N)[C@H](C)OP(=O)(O)O)cc1 [Example 19, Phosphoric acid mono-[(1S,2R)-2-amino-4-(4-heptyloxy-phenyl)-1,2-dimethyl-butyl]ester] | –
– | – | – | – | – | – | – | – | CCCCCCCOc1ccc(CC[C@@](C)(N)[C@@H](C)O)cc1 [Example 1, (2R,3R)-3-Amino-5-(4-heptyloxy-phenyl)-3-methyl-pentan-2-ol] | 0.07
– | – | – | – | – | – | – | – | C[C@@H](O)[C@](C)(N)CCc1ccc(OCCc2ccc(-c3ccccc3)cc2)cc1 [Example 17, (2R,3R)-3-Amino-5-[4-(2-biphenyl-4-yl-ethoxy)-phenyl]-3-methyl-pentan-2-ol] | 0.2
Agon | 0.51 | Agon | 4.6 | Agon | 0.7 | Agon | 0.74 | CCCCCCCOc1ccc(CC[C@@](C)(N)[C@@H](C)OP(=O)(O)O)cc1 [Example 18, Phosphoric acid mono-[(1R,2R)-2-amino-4-(4-heptyloxy-phenyl)-1,2-dimethyl-butyl]ester] | –
– | – | – | – | – | – | – | – | C[C@H](O)[C@](C)(N)CCc1ccc(OCCCCCc2ccccc2)cc1 [Example 13, (2S,3R)-3-Amino-3-methyl-5-[4-(5-phenyl-pentyloxy)-phenyl]-pentan-2-ol] | 0.5
– | – | – | – | – | – | – | – | C[C@H](O)[C@](C)(N)CCc1ccc(OCCCCc2ccccc2)cc1 [Example 15, (2S,3R)-3-Amino-3-methyl-5-[4-(4-phenyl-butoxy)-phenyl]-pentan-2-ol] | 0.6
– | – | – | – | – | – | – | – | CCCCCOc1ccc2cc(CC[C@@](C)(N)[C@@H](C)O)ccc2c1 [Example 12, (2R,3R)-3-Amino-5-(6-pentyloxy-naphthalen-2-yl)-3-methyl-pentan-2-ol] | 0.4
– | – | – | – | – | – | – | – | C[C@@H](O)[C@](C)(N)CCc1ccc(OCCCCc2ccccc2)cc1 [Example 14, (2R,3R)-3-Amino-3-methyl-5-[4-(4-phenyl-butoxy)-phenyl]-pentan-2-ol] | 0.1
Agon | 0.13 | Agon | 8.5 | Agon | 0.67 | Agon | 0.29 | CCCCCOc1ccc2cc(CC[C@@](C)(N)[C@@H](C)OP(=O)(O)O)ccc2c1 [Example 20, Phosphoric acid mono-[(1R,2R)-2-amino-1,2-dimethyl-4-(6-pentyloxy-naphthalen-2-yl)-butyl]ester] | –
